Results reported in the CheMixHub viscosity set.
Where “and” joins values, the source holds several entries; their conditions need not be identical. Identical values can stand only once.

Assays:
[1] = xn = mol fraction of the nth substance listed; conditions: 100 kPa

CCN(CC)C(C)=O
Conditions | viscosity [mPa·s]
298.16 K, 101 kPa | 1.226

NCCO
viscosity
Conditions | 293.15 K | 298.15 K | 303.15 K | 313.15 K | 318.15 K | 323.15 K
101 kPa | 31.3 mPa·s | 18.64 mPa·s | 15.34 mPa·s and 14.05 mPa·s | 9.9 mPa·s and 9.972 mPa·s and 9.95 mPa·s | 8.1 mPa·s | 6.88 mPa·s and 9.44 mPa·s and 7.01 mPa·s
101.3 kPa | – | – | – | 9.702 mPa·s | – | –

NCCO.O=S(=O)([N-]S(=O)(=O)C(F)(F)F)C(F)(F)F.[Li+]
Conditions | viscosity [mPa·s]
323.15 K, 101 kPa | 1157

OCc1ccccc1
Conditions | viscosity
293.15 K, 100 kPa | 6.421 mPa·s
293.15 K, 101.33 kPa | 6.536 mPa·s
298.15 K, 101 kPa | 4.936 mPa·s and 5.54 mPa·s and 5.737 mPa·s
298.15 K, 101.3 kPa | 5.313 mPa·s
298.15 K, 101.33 kPa | 5.276 mPa·s
303.15 K, 101.3 kPa | 4.609 mPa·s and 4.515 mPa·s
308.15 K, 101 kPa | 3.66 mPa·s and 4.045 mPa·s
308.15 K, 101.3 kPa | 3.877 mPa·s
308.15 K, 101.33 kPa | 3.891 mPa·s
313.15 K, 101 kPa | 3.121 mPa·s and 3.614 mPa·s and 3.51 mPa·s
318.15 K, 101.33 kPa | 2.945 mPa·s
323.15 K, 101 kPa | 2.646 mPa·s and 2.548 mPa·s
323.15 K, 101.33 kPa | 2.591 mPa·s

C1CCCC1
viscosity [mPa·s]
Conditions | 293.15 K | 303.15 K | 313.15 K
100 kPa | 0.428 | 0.385 | 0.348
101 kPa | – | 0.387 | –
101.3 kPa | – | – | 0.3545

CCC(C)CC(C)C (centres undefined)
100 kPa
Conditions | viscosity [mPa·s]
293.15 K | 0.476
298.15 K | 0.455
303.15 K | 0.434
308.15 K | 0.416
313.15 K | 0.4

CN1CCCC1=O
viscosity
Conditions | 293.15 K | 298 K | 303 K | 303.15 K | 313 K | 313.15 K | 318 K | 323 K | 323.15 K
100 kPa | 1.853 mPa·s | – | – | – | – | – | – | – | –
101 kPa | 1.91 mPa·s | 1.61 mPa·s | 1.5 mPa·s | 1.623 mPa·s and 1.521 mPa·s | 1.29 mPa·s | 1.401 mPa·s and 1.3 mPa·s | 1.22 mPa·s | 1.12 mPa·s | 1.231 mPa·s

CCC(=O)CC
viscosity
Conditions | 298.15 K | 303.15 K | 308.15 K | 313.15 K | 318.15 K
100 kPa | – | 0.428 mPa·s | – | 0.366 mPa·s | –
101 kPa | 0.449 mPa·s and 0.437 mPa·s | – | 0.396 mPa·s and 0.393 mPa·s | 0.376 mPa·s and 0.376 mPa·s | –
101.33 kPa | 0.408 mPa·s | 0.424 mPa·s | 0.373 mPa·s | – | 0.351 mPa·s

C[n+]1ccn(CCCCCn2cc[n+](C)c2)c1.O=S(=O)([N-]S(=O)(=O)C(F)(F)F)C(F)(F)F.O=S(=O)([N-]S(=O)(=O)C(F)(F)F)C(F)(F)F
101 kPa
Conditions | viscosity
293.15 K | 1125 mPa·s and 1123 mPa·s
303.15 K | 554.9 mPa·s and 556.8 mPa·s
313.15 K | 313.4 mPa·s and 310.4 mPa·s
323.15 K | 192.3 mPa·s and 188.8 mPa·s

C=CCc1ccc2c(c1)OCO2
Conditions | viscosity [mPa·s]
298.15 K, 101 kPa | 2.29

CCCCC(CC)C(=O)OCC(COC(=O)C(CC)CCCC)(COC(=O)C(CC)CCCC)COC(=O)C(CC)CCCC (centres undefined) + CCCCCCC(=O)OCC(COC(=O)CCCCCC)(COC(=O)CCCCCC)COC(=O)CCCCCC
[1], x1 = 0.667
Conditions | viscosity [mPa·s]
303.15 K | 51.7
313.15 K | 32.6
323.15 K | 20.7

NCCO + CCO
viscosity [mPa·s], [1]
Conditions | x1 = 0.1 | x1 = 0.2 | x1 = 0.3 | x1 = 0.4 | x1 = 0.5 | x1 = 0.6 | x1 = 0.7 | x1 = 0.8 | x1 = 0.9
303.15 K | 1.33 | 1.73 | 2.3 | 3.05 | – | 5.37 | 7.03 | – | 11.6
313.15 K | 1.11 | 1.42 | 1.83 | 2.34 | 3.05 | 3.93 | 5.03 | 6.32 | 7.87
323.15 K | 0.967 | 1.19 | 1.47 | 1.85 | 2.34 | 2.95 | 3.7 | 4.54 | 5.57
